Assay results reported in patent publication US11931327B2, “Drug for retinal degenerative disease associated with photoreceptor degeneration” (Daiichi Sankyo Company, Limited, priority 2017, dated 2024).

Columns and labels:
[1] = test system: transgenic zebrafish Tg (rho: NTR-NanoLuc, my17: DsRed2); assay: animal or person; conditions: for rod-cell regeneration induction activity compared to the DMSO control: Examples 3 and 4, TTNPB 0.3, 1, 3, 10 and 30 μM, N=4, RA and BMS493 N=8, Dunnett's test; for EC50: Danio rerio, 48 h, read-out: EC50 of rod-cell regeneration induction (Activation (% of control) 50%); for rod-cell regeneration induction activity: Example 6, various RAR agonists
From the text: First, the present inventors constructed a model for evaluating induction of rod cell regeneration. […] Transgenic zebrafish Tg (rho: NTR-NanoLuc, my17: DsRed2), in which a fluorescent protein, DsRed2, which is cardiac-tissue specifically expressed by cardiomyocyte-specific my17 promoter, can be simply detected by using dsRed2 as a marker under a fluorescence stereomicroscope. In the transgenic zebrafish, in addition to cardiac tissue specific expression of DsRed2, a reductase, i.e., nitroreductase (NTR), and a photoprotein, i.e., NanoLuc fusion protein (NTR-NanoLuc), are expressed by a rod-cell specific rho promoter, in a rod-cell specific manner. […] However, if, a prodrug, metronidazole, is added, non-toxic metronidazole is converted to a toxic radical by NTR. […] After rod cells are ablated by treatment with metronidazole, the transgenic zebrafish were washed with rearing water to remove the toxic radical. […] In the transgenic zebrafish, rod cells can be quantitatively determined by measuring the amount of luminescence derived from rod-cell-specific NanoLuc expression. After the rod cells are ablated, the transgenic zebrafish are exposed to a test compound. The activity of the test compound to induce rod-cell regeneration can be quantitatively evaluated by measuring the amount of luminescence derived from NanoLuc and specific to rod cells.
1) On the day before collection of eggs, a pair of male and female zebrafish, i.e., a transgenic fish Tg (rho: NTR-NanoLuc, my17: DsRed2) and a wild type, were placed in a tank for mating and isolated by a divider.
2) The next morning (8:00-11:00), the divider was removed to allow them to mate with each other. Fertilized eggs were collected. In the evening (16:00-18:00) of the same day, only normally developed fertilized eggs were screened and raised in a plate for growth.
3) Day 3 after fertilization, juvenile fish were transferred to rearing water, which contained 10 mM metronidazole (Sigma-Aldrich, Japan) and 1% DMSO (Wako Pure Chemical Industries Ltd.), (prepared by dissolving 60 mg of instant ocean (Napco Limited (Japan)) in 1 L of distilled water), and raised in dark conditions for 24 hours. In this manner, ablation was specifically applied to the rod cells of the juvenile fish. In contrast, non-ablated juvenile fish, which were to be used as a control, were transferred to a tank containing rearing water, which contained a 1% DMSO solution, and raised.
5) Ablated juvenile fish of 4 days after fertilization were washed well with Egg water and dispensed in wells of the assay plate containing a compound together with 100 μL of Egg water, such that 2 juvenile fish individuals were present per well.
6) After the juvenile fish were raised for 2 days, […] of Egg water was removed and ethyl 3-aminobenzoate methanesulfonate (Sigma-Aldrich Japan; 0.4 mg/mL, 10 μL) was added to euthanize the fish.
7) Nano-Glo (registered trademark) Luciferase assay Substrate (Promega Corporation) was added to Nano-Glo (registered trademark) Luciferase assay buffer (Promega Corporation) in a ratio of 1:50 and 100 μL of the resultant solution was added to each of the wells.
8) Shaking was carried out by use of BIO-Mixer (Biotech Japan Co., Ltd.) for one hour and luminescence of NanoLuc (registered trademark) was measured by use of EnVision (PerkinElmer Co., Ltd., Japan).
Individual concentration groups were compared to the DMSO control group by the Dunnett's test.

[2] = target: T1, Human RARβ (Homo sapiens, UniProt P10826); assay: RAR agonistic activity, luciferase reporter (3xDR5: luc) in HEK293A cells; conditions: concentration exhibiting luminescence of 1000% of Negative control; 24 hours exposure; N=4
T1 sequence (P10826 1-448 isoform P10826-2): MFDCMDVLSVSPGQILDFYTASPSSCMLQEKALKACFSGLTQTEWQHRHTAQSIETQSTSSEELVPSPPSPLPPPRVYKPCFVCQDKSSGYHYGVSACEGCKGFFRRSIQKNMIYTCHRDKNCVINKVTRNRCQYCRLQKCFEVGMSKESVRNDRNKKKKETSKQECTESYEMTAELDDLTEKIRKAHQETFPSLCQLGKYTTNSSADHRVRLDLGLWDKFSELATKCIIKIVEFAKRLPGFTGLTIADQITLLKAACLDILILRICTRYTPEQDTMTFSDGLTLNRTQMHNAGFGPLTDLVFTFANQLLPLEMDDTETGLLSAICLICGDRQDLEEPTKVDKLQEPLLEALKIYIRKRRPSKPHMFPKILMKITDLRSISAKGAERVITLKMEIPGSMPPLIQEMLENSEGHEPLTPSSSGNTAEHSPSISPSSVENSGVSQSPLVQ
Method: (§1) RAR agonistic activity was measured in the following procedure.
(§2) 1) HEK293A cells (Invitrogen), which functionally co-express Human RARα, Human RARβ and Human RARγ, were prepared by adding Lipofectamine (registered trademark) 2000 Transfection Reagent (Thermo Fisher Scientific) to an RAR synthetic response element luciferase reporter construct (3xDR5: luc) in accordance with the method described in the manual attached to the kit.
(§3) 3) Twenty-four hours after exposure to a compound, luminescence from the cells was measured by using PICCA JEAN (registered trademark) luminescence kit (TOYO B-Net CO., LTD.) and EnVision (PerkinElmer Corporation, Japan) (N=4).
(§4) In evaluation of RAR agonistic activity, provided that the measurement value (Negative control) of luminescence from the cells with no addition of a compound was determined as 100%, the RAR agonistic activity (%) of a test substance was calculated in accordance with the following expression. The average value thereof was plotted versus the concentration of a test substance. RAR agonistic activity (%)=(measurement value of sample well÷average value of Negative control)×100

[3] = target: T2, Human RARγ (Homo sapiens, UniProt P13631); assay: as above; conditions: concentration exhibiting luminescence of 500% of Negative control; 24 hours exposure; N=4
T2 sequence (P13631 1-454): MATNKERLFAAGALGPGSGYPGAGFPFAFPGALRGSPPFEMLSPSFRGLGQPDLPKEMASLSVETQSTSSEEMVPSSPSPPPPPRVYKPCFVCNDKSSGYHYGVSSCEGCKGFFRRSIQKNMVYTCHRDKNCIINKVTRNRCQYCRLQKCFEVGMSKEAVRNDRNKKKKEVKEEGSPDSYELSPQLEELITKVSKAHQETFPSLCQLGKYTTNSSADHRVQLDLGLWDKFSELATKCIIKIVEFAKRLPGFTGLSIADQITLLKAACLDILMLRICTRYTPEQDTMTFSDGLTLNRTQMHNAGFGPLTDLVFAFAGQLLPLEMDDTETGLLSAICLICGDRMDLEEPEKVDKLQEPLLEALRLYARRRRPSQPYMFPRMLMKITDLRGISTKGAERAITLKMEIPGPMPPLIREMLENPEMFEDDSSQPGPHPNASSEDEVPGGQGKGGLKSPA
Method: as §1, §2, §3, §4

[4] = target: T3, Human RARα (Homo sapiens, UniProt P10276); assay: as above; conditions: concentration exhibiting luminescence of 1000% of Negative control; 24 hours exposure; N=4
T3 sequence (P10276 1-462): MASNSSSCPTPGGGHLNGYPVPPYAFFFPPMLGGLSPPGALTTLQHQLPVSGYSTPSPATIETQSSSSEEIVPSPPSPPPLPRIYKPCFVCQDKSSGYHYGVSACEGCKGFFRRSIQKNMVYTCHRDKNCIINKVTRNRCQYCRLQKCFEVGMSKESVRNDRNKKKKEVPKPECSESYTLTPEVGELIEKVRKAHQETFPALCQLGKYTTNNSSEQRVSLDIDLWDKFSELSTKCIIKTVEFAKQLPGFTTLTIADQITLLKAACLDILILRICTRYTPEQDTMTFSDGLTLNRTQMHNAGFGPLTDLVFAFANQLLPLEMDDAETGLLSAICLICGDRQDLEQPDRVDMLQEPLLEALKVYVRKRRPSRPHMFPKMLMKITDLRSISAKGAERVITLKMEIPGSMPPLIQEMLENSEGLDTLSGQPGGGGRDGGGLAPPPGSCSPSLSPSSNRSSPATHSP
Method: as §1, §2, §3, §4

[5] = test system: pathological zebrafish 2: Tg (rho: NTR-NanoLuc, my17: DsRed2) crossed with Tg (rho: hRHO (Q344X), omp: EGFP); assay: Rod-cell regeneration effect in retinitis pigmentosa model, quantitative evaluation by NanoLuc luminescence; format: in vivo; conditions: N=8 per concentration; Dunnett's test; FIG. 7
Method: Pathological model zebrafish, in which rod-cell regeneration can be quantitatively evaluated, were newly prepared using zebrafish known as a retinitis pigmentosa model. The effect of compounds was quantitatively verified in accordance with the following procedure.
1) Quantitative evaluation of rod-cell regeneration was carried out by zebrafish (pathological zebrafish 2) obtained by crossing transgenic Tg (rho: NTR-NanoLuc, my17: DsRed2) and Tg (rho: hRHO (Q344X), omp: EGFP).
Fertilized eggs were collected.
A screening test was repeated 8 times (N=8) at each concentration.
2) After shaking for one hour using BIO-Mixer, the luminescence from NanoLuc (registered trademark) was measured by use of EnVision.

[6] = test system: transgenic zebrafish Tg (rho: NTR-NanoLuc, my17: DsRed2); assay: Validation: ablation of rod cells by metronidazole, luminescence derived from rod cells; format: in vivo; conditions: 10 mM for 24 hours, day 3 after fertilization
Method: Thereafter, rod-cells are gradually regenerated in the zebrafish.
Day 3 after fertilization, the transgenic zebrafish were treated with 10 mM metronidazole (Sigma-Aldrich Japan) for 24 hours and euthanized by adding ethyl 3-aminobenzoate methanesulfonate (Sigma-Aldrich Japan). Luminescence derived from rod cells was measured in accordance with the manual attached to Nano-Glo (registered trademark) Luciferase Assay System (Promega Corporation). […] The resultant transgenic ablated fish were washed with rearing water, and a toxic radical derived from metronidazole was removed. Luminescence derived from the rod cells after 24 and 48 hours was measured. As a result, it was confirmed that rod cells are gradually regenerated over 48 hours (FIG. 3).

Row | Compound | RARβ EC1000 [2] [nM] | EC50 [1] [nM] | RARγ EC500 [3] [nM] | RARα EC1000 [4] [nM] | other results
1 | 4-[(1E)-2-[5,6-dihydro-5,5-dimethyl-8-(2-phenylethynyl)-2naphthalenyl]ethenyl]benzoate [BMS493] |  |  |  |  | precipitation of compound in the assay ([1]; 30 μM): precipitated; toxicity to fish ([1]; 100 μM, cardiac arrest): all fish died; rod-cell regeneration induction activity compared to the DMSO control [1]: did not show rod-cell regeneration induction activity
2 | COc1ccc(-c2ccc3cc(C(=O)O)ccc3c2)cc1C12CC3CC(CC(C3)C1)C2 [Adapalene] | 6.9 | > 1000 | 54 | 12 | Activation (% of control) ([1]; at 1000 nM (the maximum concentration evaluated), DMSO = 0%, 1 μM TTNPB = 100%): 39%
3 | CC1=C(/C=C/C(C)=C/C=C/C(C)=C/C(=O)O)C(C)(C)CCC1 [All-trans Retinoic acid] |  |  |  |  | rod-cell regeneration induction activity compared to the DMSO control [1]: significant rod-cell regeneration induction activity in a concentration-dependent manner
4 | CC1(C)CCC(C)(C)c2cc(Cn3cccn3)c(/C=C/c3ccc(C(=O)O)cc3)cc21 [Palovarotene] |  | 1210 |  |  | 
5 | CCOC(=O)c1ccc(C(=O)Nc2ccc3c(c2)C(C)(C)CCC3(C)C)cc1 [Tamibarotene ethyl ester] | 514 | 4.9 | 714 | 21.8 | rod-cell regeneration induction activity [1]: strong rod-cell regeneration induction activity
6 | COC(=O)c1ccc(C(=O)Nc2ccc3c(c2)C(C)(C)CCC3(C)C)cc1 [Tamibarotene methyl ester] | 29.1 | 85.4 | 72.8 | 0.91 | 
7 | CC1(C)CCC(C)(C)c2cc(NC(=O)c3ccc(C(=O)O)cc3)ccc21 [Tamibarotene] | 79 | 9.08 | 248 |  | regeneration of rod cells in the retinitis pigmentosa model (luminescence, words) [5]: statistically significant regeneration of rod cells in a dose dependent manner; rod-cell regeneration induction activity [1]: strong rod-cell regeneration induction activity
8 | CCOC(=O)c1ccc(C#Cc2ccc3c(c2)C(C)(C)CCS3)nc1 [Tazarotene] |  | 402 |  |  | 
9 | CC1(C)CCSc2ccc(C#Cc3ccc(C(=O)O)cn3)cc21 [Tazarotenic acid] | 4.4 | 786 | 48 | 12 | 
10 | Cc1ncc([N+](=O)[O-])n1CCO [metronidazole] |  |  |  |  | number of rod cells remaining after ablation (luminescence) [6]: 13.5%
